# According to patent US20240101531A1, “PYRIDINAMINE DERIVATIVES AND THEIR USE AS POTASSIUM CHANNEL MODULATORS” (Xenon Pharmaceuticals Inc., priority 2022, published 2024):
# Target: human KV7.2/KV7.3 (Homo sapiens (Human), UniProt O43525+O43526)
# Test: Potassium flux assay (IPG-2 AM dye)
# Type: cell-based
# Details: TREX HEK 293 or HEK 293 cells expressing human KV7.2/KV7.3; arithmetic mean values
# Procedure, shortened: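 HEK 293 or TREX HEK 293 cells stably expressing human KV7.2/KV7.3 (tetracycline-induced where needed), loaded with IPG-2 AM, then compound for 20 min at room temperature. Flux triggered by K challenge buffer (10 mM KCl, pH 7.4), read at 530/558 nm; EC50 from 16-point 2-fold series from 30 μM, normalised to DMSO and reference modulator.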
row,Compound,EC50 [nM]
1,"CCC1(COc2ccc3c(Nc4ccc(Cl)nc4)nccc3c2)COC1 [Example 328, N-(6-chloropyridin-3-yl)-6-((3-ethyloxetan-3-yl)methoxy)isoquinolin-1-amine]",< 1000
2,"OCC1(COc2ccc3c(Nc4ccc(Cl)nc4)nccc3c2)COC1 [Example 329, (3-(((1-((6-chloropyridin-3-yl)amino)isoquinolin-6-yl)oxy)methyl)oxetan-3-yl)methanol]",1000 to 10000
3,"OC12CC3CC(C1)CC(Oc1ccc4c(Nc5ccc(Cl)nc5)nccc4c1)(C3)C2 [Example 331, 3-((1-((6-chloropyridin-3-yl)amino)isoquinolin-6-yl)oxy)adamantan-1-ol]",< 1000
4,"Clc1ccc(Nc2nccc3cc(OCC4CC45CCC5)ccc23)cn1 (stereo not shown) [Example 332, N-(6-chloropyridin-3-yl)-6-(spiro[2.3]hexan-1-ylmethoxy)isoquinolin-1-amine]",1000 to 10000
5,"N#CC1(COc2ccc3c(Nc4ccc(Cl)nc4)nccc3c2)CC2(COC2)C1 [Example 333, 6-(((1-((6-chloropyridin-3-yl)amino)isoquinolin-6-yl)oxy)methyl)-2-oxaspiro[3.3]heptane-6-carbonitrile]",< 1000
6,"Clc1ccc(Nc2nccc3cc(OCc4cn[nH]c4)ccc23)cn1 [Example 334, 6-((1H-pyrazol-4-yl)methoxy)-N-(6-chloropyridin-3-yl)isoquinolin-1-amine]",< 1000
7,"CC(Oc1ccc2c(Nc3ccc(Cl)nc3)nccc2c1)c1cn[nH]c1 (stereo not shown) [Example 335, 6-(1-(1H-pyrazol-4-yl)ethoxy)-N-(6-chloropyridin-3-yl)isoquinolin-1-amine]",1000 to 10000
8,"COCCn1cc(COc2ccc3c(Nc4ccc(Cl)nc4)nccc3c2)cn1 [Example 336, N-(6-chloropyridin-3-yl)-6-((1-(2-methoxyethyl)-1H-pyrazol-4-yl)methoxy)isoquinolin-1-amine]",1000 to 10000
9,"Clc1ccc(Nc2nccc3cc(OCc4c[nH]nc4Cl)ccc23)cn1 [Example 337, 6-((3-chloro-1H-pyrazol-4-yl)methoxy)-N-(6-chloropyridin-3-yl)isoquinolin-1-amine]",1000 to 10000
10,"Cc1n[nH]c(C)c1COc1ccc2c(Nc3ccc(Cl)nc3)nccc2c1 [Example 338, N-(6-chloropyridin-3-yl)-6-((3,5-dimethyl-1H-pyrazol-4-yl)methoxy)isoquinolin-1-amine]",1000 to 10000
11,"Cc1ncc(Nc2nccc3cc(O[C@H]4CCC[C@@H](O)C4)ccc23)cn1 [Example 339, (1R,3S)-3-((1-((2-methylpyrimidin-5-yl)amino)isoquinolin-6-yl)oxy)cyclohexan-1-ol]",< 1000
12,"Cc1ncc(Nc2nccc3cc(O[C@@H]4CCC[C@H](O)C4)ccc23)cn1 [Example 340, (1 S,3R)-3-((1-((2-methylpyrimidin-5-yl)amino)isoquinolin-6-yl)oxy)cyclohexan-1-ol]",< 1000
13,"CC1(CCc2ccc3c(Nc4ccc(Cl)nc4)nccc3c2)COC1 [Example 341, N-(6-chloropyridin-3-yl)-6-(2-(3-methyloxetan-3-yl)ethyl)isoquinolin-1-amine]",1000 to 10000
14,"N#C[C@H]1CCC[C@H](Oc2ccc3c(Nc4ccc(Cl)nc4)nccc3c2)C1 [Example 342, (1 S,3S)-3-((1-((6-chloropyridin-3-yl)amino)isoquinolin-6-yl)oxy)cyclohexane-1-carbonitrile]",1000 to 10000
15,"N#C[C@@H]1CCC[C@H](Oc2ccc3c(Nc4ccc(Cl)nc4)nccc3c2)C1 [Example 343, (1R,3S)-3-((1-((6-chloropyridin-3-yl)amino)isoquinolin-6-yl)oxy)cyclohexane-1-carbonitrile]",1000 to 10000
16,"N#C[C@@H]1CCC[C@@H](Oc2ccc3c(Nc4ccc(Cl)nc4)nccc3c2)C1 [Example 344, (1R,3R)-3-((1-((6-chloropyridin-3-yl)amino)isoquinolin-6-yl)oxy)cyclohexane-1-carbonitrile]",1000 to 10000
